The record followed here is patent publication US4871388A, “Herbicidal liquid concentrate compositions” (priority 1987, dated 1989).

Series [1] is described as follows: Initial solubility and dissolution in water of 7.5 g of liquid concentrate compositions utilizing 1 molar equivalent of different acids (Table II). As to conditions: solvents with greater than 20% by weight solubility; without addition of 0.2 to 1.0 molar equivalent of acids.
Series [2] can be described thus: Dilution in water of solutions of the ester(s) to normal agricultural tank-mix rates. The series is classed as physicochemical. The settings on record: solvents with >15% solubility; normal agricultural tank-mix rates (1:9-1:99).
The nature of series [3]: Solubility of the isomeric mixture at room temperature in various solvents (Table I). The series is classed as physicochemical. The text has this:
|at Room Temperature in Various Solvents

On to “isomeric mixture of 6-(5-isopropyl-5-methyl-4-oxo-2-imidazolin-2-yl)-m-toluic acid, methyl ester and 2-(5-isopropyl-5-methyl-4-oxo-2-imidazolin-2-yl)-p-toluic acid, methyl ester”, for which the “dissolution characteristics of the resulting concentrate” value in series [1] is on record as “not satisfactory”. For the same substance, the “precipitate formation on dilution in water” value in series [2] was “unsprayable precipitates are formed”. Also, in series [3] (in many of the solvents listed in Table I), the “limited solubility by weight” value is recorded as no more than 15%. Further, the “% Solubility by Weight” value in series [3] (solvent: 1-Formylpiperidine) is greater than 15%; in series [3] (solvent: 1-propanol), greater than 15%; in series [3] (solvent: Amyl acetate) it was 5%; in series [3] (solvent: Amyl alcohol (mixed)), greater than 15%; in series [3] (solvent: Anisole) it was 5%; in series [3] (solvent: Aromatic 150), 5%. For the same substance, the “% Solubility by Weight” value is listed as greater than 15% in series [3] (solvent: Chloroform); 5% in series [3] (solvent: Diethyl succinate); greater than 15% in series [3] (solvent: Dimethyl sulfoxide); greater than 15% in series [3] (solvent: Dimethylformamide); greater than 15% in series [3] (solvent: Methanol); greater than 15% in series [3] (solvent: Methyl cellosolve). Moreover, the “% Solubility by Weight” value is 5% in series [3] (solvent: Methyl oleate); greater than 15% in series [3] (solvent: N-methylpyrrolidone); 5% in series [3] (solvent: Oleic acid); 5% in series [3] (solvent: Penn Drake Oil (Kerosene)); 5% in series [3] (solvent: Propylene glycol); 5% in series [3] (solvent: Tenneco 500/1000). Further, the “% Solubility by Weight” value in series [3] (solvent: Triethanolamine) and in series [3] (solvent: Xylene) was 5% each time.
